For assay [1], the species on record is Oryctolagus cuniculus. Briefly: Inhibition of rabbit muscle SERCA at 10 uM.
Assay [2] can be described thus: Inhibition of Plasmodium falciparum ATP6 expressed in Xenopus laevis oocytes. Format: cell-based. As to conditions: oocyte.
Assay [3] in a line: Inhibition of Plasmodium berghei SERCA.
Assay [4] relates to Oocyte. The assay is described as follows: Abrogation of Plasmodium falciparum ATP6 inhibition expressed in Xenopus laevis oocytes at 10 uM in presence of 100 uM desferioxamine. Type of assay: cell-based.
The test system of assay [5] is Oocyte. The assay is described as follows: Inhibition of Plasmodium falciparum ATP6 expressed in Xenopus laevis oocytes at 50 uM. Format: cell-based.
For assay [6], the species on record is Oryctolagus cuniculus. The assay is described as follows: Inhibition of rabbit muscle SERCA at 100 uM.
For assay [7], the system named is Oocyte. Briefly: Inhibition of Plasmodium falciparum HT expressed in Xenopus laevis oocytes assessed as D-[U-14C]glucose uptake at 50 uM. Format: cell-based.
The subject of another assay is Plasmodium falciparum. Briefly: Antimalarial activity against Plasmodium falciparum NF54 within 48 hrs. Type of assay: functional, organism-based. As to conditions: NF54, 48 h.

Calls of active or inactive are those of the source. The rule behind the calls is not given here.

The inhibition is the relative decrease from the control value, in per cent. Read a high inhibition as a strong effect. Take `C/C=C(/C)C(=O)O[C@H]1C(C)=C2[C@H]([C@@H]1OC(=O)CCCCCCC)[C@@](C)(OC(C)=O)C[C@H](OC(=O)CCC)[C@@]1(O)[C@H]2OC(=O)[C@@]1(C)O`: in the assay listed under Oryctolagus cuniculus [1], the inhibition came to 75%.

What is called Ki is a measure of affinity in units of concentration, obtained from inhibition or displacement. A low value points to tighter binding. Consider `C[C@@H]1CC[C@H]2[C@@H](C)C(=O)O[C@@H]3O[C@@]4(C)CC[C@@H]1[C@]32OO4` [ARTEMISININ], for which the Ki in assay [2] came out at 0.079 µM; in assay [3], 6 µM.

Broadly, the IC50 is the concentration at which inhibition is half-maximal. Turning to `CC(C)(N)CNC(=O)C[C@H]1CC[C@@]2(CC1)OOC1(O2)C2CC3CC(C2)CC1C3` (some centres undefined), the outcome in the assay with Oocyte [4] and in the assay with Oocyte [7] was inactive. Further, in the assay on Oocyte [5], the result was Active. The same compound gave an inhibition in the assay filed under Oryctolagus cuniculus [6] of 50%. In assay [2], the Ki was found to be 7.7 µM. This compound returned an IC50 in the assay with Plasmodium falciparum of 0.0016 µM.

Source of the values: ChEMBL document CHEMBL1142213, “Mechanism of antimalarial action of the synthetic trioxolane RBX11160 (OZ277)” (Antimicrob Agents Chemother, 2007).
